Test [1] concerns the target T1, dehydroquinate dehydratase (Escherichia coli, UniProt P05194).
T1 sequence (P05194 1-252): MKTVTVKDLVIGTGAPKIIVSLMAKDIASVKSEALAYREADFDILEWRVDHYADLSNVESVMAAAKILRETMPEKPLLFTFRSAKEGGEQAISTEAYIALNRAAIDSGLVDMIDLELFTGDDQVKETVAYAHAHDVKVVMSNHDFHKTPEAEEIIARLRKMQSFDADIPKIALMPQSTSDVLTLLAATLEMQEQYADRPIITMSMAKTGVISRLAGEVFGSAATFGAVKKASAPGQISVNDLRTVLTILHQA
Conditions: in Escherichia coli; cited from earlier work.

The next test has as its system shikimate dehydrogenase. Conditions: cited from earlier work.
For test [2], the target named is dehydroquinate dehydratase/shikimate dehydrogenase (Nicotiana tabacum, UniProt Q6PUF9). Kind of test: shikimate dehydrogenase activity assay of Example 5A (NADPH formation, OD 334 nm). Format: biochemical. Conditions: 0.1 mM shikimate, 0.1 mM NADP, pH 9.9. As for the experimental part:
A. The shikimate dehydrogenase of the bifunctional dehydroquinate dehydratase/shikimate dehydrogenase enzyme catalyzes the following reaction:
shikimate+NADP ? dehydroshikimate+NADPH
The formation of NADPH can be measured over 10 minutes at an OD of 334 nm. The reaction is started by adding 1 microliter of the extracted crude protein. The reaction buffer contains:
100 mM glycine-NaOH, pH: 9.9;
0.1 mM shikimate (Sigma);
The full-length dehydroquinate dehydratase/shikimate dehydrogenase gene was cloned into the pQE vector (FIG. 7) and transformed into E. coli. A single colony of this E. coli strain was incubated overnight at 37° C. in the growth medium “2xYT” (per liter: Bacto tryptone 16 g, yeast extract 10 g, NaCl 5 g, 50 mg/l ampicillin and 50 mg/l kanamycin). Next day, 50 ml of 2*YT were inoculated with 0.5 ml of the overnight culture and grown at 25° C. to an OD600 of 0.6. Gene expression was induced by addition of IPTG (final concentration: 0.05 mM) and incubation was continued for 3 hours at 25° C. The cells were harvested at 4° C. by centrifugation for 10 minutes at 8000 rpm. The pellet was taken up in 3 ml of extraction buffer (50 mM NaH2PO4, 300 mM NaCl, 10 mM imidazole, 15% glycerol, 5 mM mercaptoethanol). The pellet was frozen in liquid nitrogen and again defrosted on ice. The cells were disrupted by sonication (4×45 seconds, 1 minute on ice). The cells were spun down for 20 minutes at 4° C. and 1500 rpm, and the supernatent was used directly for the enzyme measurements.
Six substances whose IC50 value is in the μM range were identified in a comprehensive screening based on the activity assay described in Example 5A (see Table 1).

Test [3] relates to duckweed Lemna paucicostatag. Nature of the test: Lemna test, chlorophyll fluorescence. Format: in vivo, Lemna minor. Further details: key: A herbicidal effect can be detected by comparison with an untreated control; it is identified in Table 1 by the symbol H. The following applies: chlorophyll fluorescence vs untreated control; 5 mmol/l in DMSO diluted 1:5 in water, 25 μl in 0.5 ml nutrient solution. As for the experimental part:
The effect of the herbicidal compounds according to the invention on the growth of the duckweed Lemna paucicostatag is evident from the following test results:
Lemna minor was grown under nonsterile conditions in Petri dishes in 17 mmol/l MES buffer pH 5.5+1.5 mmol/l CaCl—2+1 g/l “Hakaphos spezial”.
To carry out the test, the Lemna cultures are washed and singled out into 0.5 ml of fresh nutrient solution in 48-well microtiter plates. The active ingredients are dissolved in DMSO at a concentration of 5 mmol/l and diluted 1:5 in water. 25 μl of this solution are used in the test.
The parameter measured is the fluorescence of the chlorophyll during the treatment. A herbicidal effect can be detected by comparison with an untreated control; it is identified in Table 1 by the symbol H.

Chain of dehydroquinate dehydratase/shikimate dehydrogenase (Q6PUF9 entry or part of it): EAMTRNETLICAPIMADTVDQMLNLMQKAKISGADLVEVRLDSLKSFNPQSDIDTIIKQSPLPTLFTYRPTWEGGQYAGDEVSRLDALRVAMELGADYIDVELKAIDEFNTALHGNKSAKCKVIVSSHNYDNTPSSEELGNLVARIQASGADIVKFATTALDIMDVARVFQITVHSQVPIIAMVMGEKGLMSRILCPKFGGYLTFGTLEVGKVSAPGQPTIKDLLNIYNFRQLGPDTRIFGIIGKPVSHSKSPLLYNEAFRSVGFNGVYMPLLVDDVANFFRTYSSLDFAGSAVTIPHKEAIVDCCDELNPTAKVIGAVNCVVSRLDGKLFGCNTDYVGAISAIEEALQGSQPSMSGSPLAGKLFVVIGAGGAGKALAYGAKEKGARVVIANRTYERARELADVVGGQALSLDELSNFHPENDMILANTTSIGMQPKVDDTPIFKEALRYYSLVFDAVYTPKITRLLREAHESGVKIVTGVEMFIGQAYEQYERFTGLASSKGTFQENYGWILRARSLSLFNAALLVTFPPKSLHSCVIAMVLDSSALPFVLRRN

On to diethylcarbonates, for which, in test [1], the “inhibitory effect on dehydroquinate dehydratase” value is on record as “inhibitory effect”. Take p-chloromercuribenzoates: the “inhibitory effect on shikimate dehydrogenase” value in the test on shikimate dehydrogenase was “inhibitory effect”.

In the case of succinates, the “inhibitory effect on dehydroquinate dehydratase” value in test [1] was “inhibitory effect”.

Consider acetates, for which the “inhibitory effect on dehydroquinate dehydratase” value in test [1] is given as “inhibitory effect”. Take `O=S(=O)([O-])[O-].[Cu+2]` [CuSO4]: in the test on shikimate dehydrogenase, the “inhibitory effect on shikimate dehydrogenase” value was “inhibitory effect”. Take `CC(=N\O)/C(=N/Nc1ccc(S(C)(=O)=O)cc1)c1ccc(Cl)cc1` [No. 3]: the IC50 in test [2] was 7 µM. Also, in test [3], the “Effect (herbicidal effect on growth of Lemna)” value is recorded as “H”. On to berates, for which the “inhibitory effect on shikimate dehydrogenase” value in the test on shikimate dehydrogenase is “inhibitory effect”. Turning to `[Cu+2]` [Cu^2+], in the test on shikimate dehydrogenase, the “inhibitory effect on shikimate dehydrogenase” value is listed as “inhibitory effect”. For the compound D-(+)-tartrates, the “inhibitory effect on dehydroquinate dehydratase” value in test [1] is listed as “inhibitory effect”. `O=c1[nH]c2ccccc2c(=O)n1CCN1CC2C[C@@H](c3cccc(Cl)c3)C2C1` (stereo partly shown) [No. 1] came in with an IC50 in test [2] of 20 µM. Moreover, the “Effect (herbicidal effect on growth of Lemna)” value in test [3] is “H”. On to `[Hg+2]` [Hg^2+], for which the “inhibitory effect on shikimate dehydrogenase” value in the test with shikimate dehydrogenase is “inhibitory effect”. For the compound `[Cl-].[Cl-].[Zn+2]` [ZnCl2], the “inhibitory effect on shikimate dehydrogenase” value in the test with shikimate dehydrogenase is “inhibitory effect”.

`COc1cc(C(=S)N[C@H]2CC[C@@H](C(C)(C)C)CC2)ccc1OC(C)=O` [No. 6]: 11 µM corresponded to half-maximal inhibition in test [2] (IC50). Further, in test [3], the “Effect (herbicidal effect on growth of Lemna)” value is listed as “H”.

For `CCN1C(=O)C=CC1=O` [N-ethylmaleimides], in the test with shikimate dehydrogenase, the “inhibitory effect on shikimate dehydrogenase” value was “inhibitory effect”. Take `O=S(=O)([O-])[O-].[Cd+2]` [CdSO4]: the “inhibitory effect on shikimate dehydrogenase” value in the test on shikimate dehydrogenase was “inhibitory effect”. Turning to `O=C(Nc1c(Cl)cc(Cl)cc1Cl)c1cccc(O)c1O` [No. 5], the IC50 in test [2] was 3 µM. Further, the “Effect (herbicidal effect on growth of Lemna)” value in test [3] is recorded as “H”.

As for `[Zn+2]` [Zn^2+], the “inhibitory effect on shikimate dehydrogenase” value in the test on shikimate dehydrogenase was “inhibitory effect”. As to `[Cl][Hg][Cl]` [HgCl2], the “inhibitory effect on shikimate dehydrogenase” value in the test with shikimate dehydrogenase was “inhibitory effect”. As for arsenites, the “inhibitory effect on shikimate dehydrogenase” value with shikimate dehydrogenase was “inhibitory effect”. In turn, `O=C(NNC(=O)c1sc2ccccc2c1Cl)Nc1cccc(Cl)c1` [No. 2] returned an IC50 in test [2] of 23 µM. For the same compound, the “Effect (herbicidal effect on growth of Lemna)” value in test [3] is listed as “H”.

Values taken from US20030145348A1, “Dehydroquinate dehydrase/shikimate dehydrogenase as a herbicide target” (priority 2000, published 2003).
